Source: patent publication US20120028995A1, “NOVEL COMPOUNDS FOR MEDICAL USE AS PEPTIDASE EFFECTORS” (IMTM GMBH, priority 2010, published 2012)
Where two headings read alike, the source gives them in different places.

How the values were obtained:
[1] = biological target: T1, cytosolic aminopeptidase (cAAP) purified from Jurkat cells (Homo sapiens, UniProt P55786); experiment: Inhibition of enzymatic activity of cytosolic aminopeptidase (cAAP); format: biochemical; details: highest test item concentration 25 μM; for IC50: read-out: meas. IC50 (cAAP)
T1 construct: The cytosolic aminopeptidase (cAAP) was purified from Jurkat cells; endogenous in cells; host or cells: Jurkat cells (enzyme purified from them)
T1 sequence (P55786 whole entry): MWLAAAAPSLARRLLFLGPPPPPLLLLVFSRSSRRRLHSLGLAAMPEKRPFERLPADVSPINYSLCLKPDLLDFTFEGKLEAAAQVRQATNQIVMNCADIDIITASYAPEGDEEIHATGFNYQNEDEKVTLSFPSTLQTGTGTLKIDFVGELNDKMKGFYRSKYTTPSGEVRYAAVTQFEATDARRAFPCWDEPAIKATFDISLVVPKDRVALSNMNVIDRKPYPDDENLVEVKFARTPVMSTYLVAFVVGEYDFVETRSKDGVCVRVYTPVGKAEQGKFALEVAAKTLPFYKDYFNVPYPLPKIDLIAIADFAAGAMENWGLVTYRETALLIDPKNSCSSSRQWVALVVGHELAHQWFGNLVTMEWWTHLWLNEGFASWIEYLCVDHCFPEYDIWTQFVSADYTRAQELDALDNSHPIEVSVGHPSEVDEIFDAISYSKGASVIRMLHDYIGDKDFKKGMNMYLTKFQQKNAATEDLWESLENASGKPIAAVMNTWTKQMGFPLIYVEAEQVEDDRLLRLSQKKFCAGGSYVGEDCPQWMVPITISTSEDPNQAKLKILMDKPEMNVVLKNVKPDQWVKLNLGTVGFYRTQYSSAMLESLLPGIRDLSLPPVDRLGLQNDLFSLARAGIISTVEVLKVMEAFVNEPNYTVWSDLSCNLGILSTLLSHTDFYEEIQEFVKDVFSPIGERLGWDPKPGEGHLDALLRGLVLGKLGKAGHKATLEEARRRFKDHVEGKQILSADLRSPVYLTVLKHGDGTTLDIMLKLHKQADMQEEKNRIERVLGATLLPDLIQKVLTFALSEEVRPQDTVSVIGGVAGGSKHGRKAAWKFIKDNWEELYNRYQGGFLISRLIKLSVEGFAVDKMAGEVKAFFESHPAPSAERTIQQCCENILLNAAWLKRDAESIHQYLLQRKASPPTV

[2] = system: purified, recombinant DP8 and DP9; experiment: Inhibition of enzymatic activity of DP8/9; format: biochemical; details: highest test item concentration 25 μM
Method: (§1) The inhibition of the enzymatic activity of DPIV and related enzymes was measured by using purified, recombinant human DPIV (purified from transfected Sf9 cells, final enzyme concentration approx. 1 nM) as well as purified, recombinant DP8 and DP9 (purchased from Biomol). The assay was performed in 0.05M TRIS/HCl puffer pH 7.5, supplemented with 0.05% Triton (v/v), 0.05% BSA (w/v), 2 mM MgCl2.
(§2) The enzymatic activity of DPIV was assessed by the hydrolysis of the fluorogenic substrates H-Gly-Pro-4-amino-7-methyl coumarine (abbreviation of fluorogenic group AMC; purchased from Bachem) or (Ala-Pro)2-Rhodamine 110 (abbreviation R110). The final substrate concentrations were 50 μM or 1 μM, respectively.
(§3) The assay was performed in white microtitre plates for fluorescence measurements. The test items, substrate and enzyme were diluted in assay buffer. The highest test item concentration used was 25 μM. For the calculation of IC50 values, at least 16 log 2-dilutions of each test item were analyzed. As controls, the DPIV activity in the absence of test items as well as the spontaneous hydrolysis of the substrate was determined.
(§4) The release of the fluorescent hydrolysis product AMC was measured at an excitation wavelength of 380 nm and an emission wavelength of 460 nm by using a microtitre fluorescence reader immediately after substrate addition as well as after 30, 60 and 120 min. The hydrolysis of the substrate (Ala-Pro)2-Rhodamine 110 was determined at an exitation wavelength of 488 nm and emission wavelength of 530 nm.

T lymphocytes (T cells) = experiment: Suppression of DNA synthesis of PHA-stimulated T lymphocytes; format: cell-based; details: tritium thymidine incorporation, read-out: Supp. DNA Synt. T-cell IC50
Method: Peripheral blood mononuclear cells (PBMC) from healthy human volunteers were freshly isolated by density gradient centrifugation. T lymphocytes (T cells) were isolated from PBMC fractions via nylon wool adherence. Both cell populations were cultured in serum free lymphocyte medium (AIMV medium, Invitrogen) and stimulated by addition of 1 μg/ml Phytohemagglutinine for 48 hours in 96 well flat-bottom microtiter plates. Test compounds were added at concentration ranges from 0.1 up to 250 μM over the total assay period.
DNA synthesis of proliferating PBMC was assessed by incorporation of nucleotide analogue bromdesoxyuridine (BrdU) and subsequent detection of BrdU by ELISA technique (Cell Proliferation Biotrak™ ELISA system, GE Health Care) according to the protocol of the manufacturer. DNA synthesis of proliferating T cells was determined by incorporation of radio labelled tritium thymidine and subsequent radio detection.
Data output was based on raw data and calculation of relative proliferation response in relation to PHA-activated T cells in the absence of test compound (100% control). The IC50 value of proliferation suppression was assessed by graphical evaluation.

[3] = biological target: T2, purified, recombinant human DPIV (Homo sapiens, UniProt P27487); experiment: Inhibition of enzymatic activity of DPIV (fluorogenic substrate hydrolysis); format: biochemical; details: highest test item concentration 25 μM
T2 construct: made in house; host or cells: Sf9 insect cells
T2 sequence (P27487 whole entry): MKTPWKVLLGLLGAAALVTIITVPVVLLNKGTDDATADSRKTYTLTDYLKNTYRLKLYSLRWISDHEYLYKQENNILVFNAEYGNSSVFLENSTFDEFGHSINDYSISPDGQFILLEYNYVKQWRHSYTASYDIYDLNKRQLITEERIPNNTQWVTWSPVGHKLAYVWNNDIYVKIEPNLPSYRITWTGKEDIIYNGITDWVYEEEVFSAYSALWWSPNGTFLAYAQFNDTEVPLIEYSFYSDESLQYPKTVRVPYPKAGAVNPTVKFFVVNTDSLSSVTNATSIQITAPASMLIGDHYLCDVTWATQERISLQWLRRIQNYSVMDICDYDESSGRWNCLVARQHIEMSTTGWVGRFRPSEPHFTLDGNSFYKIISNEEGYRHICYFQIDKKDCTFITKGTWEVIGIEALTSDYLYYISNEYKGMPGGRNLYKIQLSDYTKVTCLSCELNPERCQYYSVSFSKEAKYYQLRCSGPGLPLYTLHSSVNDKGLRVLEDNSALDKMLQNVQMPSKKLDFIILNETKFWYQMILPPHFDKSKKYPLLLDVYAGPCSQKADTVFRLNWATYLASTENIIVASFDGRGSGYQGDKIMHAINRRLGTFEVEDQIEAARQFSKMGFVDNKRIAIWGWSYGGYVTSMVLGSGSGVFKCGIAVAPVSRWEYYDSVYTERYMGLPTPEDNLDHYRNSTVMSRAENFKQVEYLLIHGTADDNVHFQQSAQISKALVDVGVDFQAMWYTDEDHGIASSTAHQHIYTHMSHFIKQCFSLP
Method: as §1, §2, §3, §4

SZ95 cells = experiment: Inhibition of DNA synthesis and proliferation of immortalized human sebocytes SZ95; format: cell-based; details: EGF-stimulated SZ95 sebocytes, tritium thymidine incorporation, read-out: Supp. DNA Synt. SZ95 IC50
Method: The immortalized human sebocyte line SZ95 was provided by Prof. C Zouboulis [C C Zouboulis, H Seltmann, H Neitzel, C E Orfanos, Establishment and characterization of an immortalized human sebaceous gland cell line (SZ95). J. Invest. Dermatol. 113(6):1011-1020 (1999), the entire disclosure of which is incorporated by reference herein]. These adherent growing cells were cultured in serum-free Sebomed Complete (Biochrom). Recombinant EGF was added in order to stimulate DNA synthesis and proliferation of the SZ95 cells. Test items were added in concentrations from 0.1 up to 100 μM.
The DNA synthesis of proliferating cells was detected by incorporation of radiolabelled tritium thymidine (3HT) and counting at a beta counter. Based on these raw data the relative proliferation response in relation to cells cultured in the absence of test compound (100% control) was calculated. IC50 values of proliferation suppression were assessed by computer-assisted graphical evaluation.

[4] = biological target: T3, aminopeptidase N (APN), purified recombinant human enzyme (Homo sapiens, UniProt P15144); experiment: Inhibition of enzymatic activity of aminopeptidase N (fluorogenic substrate hydrolysis); format: biochemical; details: highest test item concentration 25 μM
T3 construct: made in house; host or cells: ECV cells (transfected)
T3 sequence (P15144 whole entry): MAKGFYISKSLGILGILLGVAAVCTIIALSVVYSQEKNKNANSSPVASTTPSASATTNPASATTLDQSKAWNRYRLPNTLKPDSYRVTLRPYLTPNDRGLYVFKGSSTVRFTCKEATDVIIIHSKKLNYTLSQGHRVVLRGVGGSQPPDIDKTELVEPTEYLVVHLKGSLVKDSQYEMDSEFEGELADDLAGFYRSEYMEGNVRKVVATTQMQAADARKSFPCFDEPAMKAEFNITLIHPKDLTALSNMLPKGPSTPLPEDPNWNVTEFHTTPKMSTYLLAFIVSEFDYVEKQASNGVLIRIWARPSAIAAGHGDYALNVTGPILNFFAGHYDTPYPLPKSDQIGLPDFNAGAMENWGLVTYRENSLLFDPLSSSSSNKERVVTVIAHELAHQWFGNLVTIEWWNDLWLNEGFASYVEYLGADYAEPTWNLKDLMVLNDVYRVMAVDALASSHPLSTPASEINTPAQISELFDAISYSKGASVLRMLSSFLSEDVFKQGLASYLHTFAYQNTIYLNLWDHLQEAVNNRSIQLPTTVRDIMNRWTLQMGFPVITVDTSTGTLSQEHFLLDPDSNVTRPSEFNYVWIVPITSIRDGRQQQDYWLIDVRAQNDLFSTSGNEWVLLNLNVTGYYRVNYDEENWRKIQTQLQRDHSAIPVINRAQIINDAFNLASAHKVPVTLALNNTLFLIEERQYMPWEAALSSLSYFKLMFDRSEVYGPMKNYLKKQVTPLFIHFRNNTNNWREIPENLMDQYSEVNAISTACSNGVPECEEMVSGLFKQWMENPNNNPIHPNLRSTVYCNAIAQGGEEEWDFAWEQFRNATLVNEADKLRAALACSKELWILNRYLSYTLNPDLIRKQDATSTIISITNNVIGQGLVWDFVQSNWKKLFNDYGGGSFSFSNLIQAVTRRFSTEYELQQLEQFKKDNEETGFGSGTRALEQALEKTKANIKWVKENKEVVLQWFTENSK
Method: The inhibition of the enzymatic activity of aminopeptidase N (APN) was measured by using purified, recombinant human enzyme (purified from transfected ECV cells, final enzyme concentration approx. 1 nM). […] The assay was performed in 0.05M TRIS/HCl puffer pH 7.5, supplemented with 0.05% Triton (v/v), 0.05% BSA (w/v), 2 mM MgCl2.
The aminopeptidase acitivities wer assessed by the hydrolysis of the fluorogenic substrates H-Ala-4-amino-7-methyl coumarine (abbreviation of fluorogenic group AMC; purchased from Bachem) or (Ala-)2-Rhodamine 110 (abbreviation R110). The final substrate concentrations were again 50 and 1 μM, respectively.
as §3
The release of the fluorescent hydrolysis products AMC and R110 was measured as described above for DPIV substrates.

NHEK cells = experiment: Inhibition of DNA synthesis and proliferation of normal human epidermal keratinocytes (NHEK); format: cell-based; details: EGF-stimulated NHEK, BrdU incorporation, read-out: Supp. DNA Synt. NHEK IC50
Method: NHEK cells (primary cells from person) were purchased from PromoCell. For these assay the adherent cells were cultured in serum-free Keratinocyte Growth medium 2 supplemented with epidermal growth factor (EGF) and bovine pituitary extract for 48 hours in flat-bottom microtiter plates. EGF stimulates the DNA synthesis and proliferation of these cells. Test items were added in concentrations from 0.1 up to 100 μM.
The DNA synthesis was assessed by incorporation of bromdesoxyuridine (BrdU) and subsequent detection of BrdU by ELISA technique. Based on these raw data the relative proliferation response in relation to cells cultured in the absence of test compound (100% control) was calculated. IC50 values of proliferation suppression were assessed by computer-assisted graphical evaluation.

Row | Compound | IC50 [1] | meas. IC50 (DP8/9) [2] | IC50 (T lymphocytes (T cells); Homo sapiens, T-cell, 48 h) | meas. IC50 (DPIV) [3] | IC50 (SZ95 cells; Homo sapiens) | meas. IC50 (APN) [4] | IC50 (NHEK cells; Homo sapiens, NHEK, 48 h) | meas. IC50 (cAAP) [1] | IC50 (T lymphocytes (T cells); T-cell, PHA-stimulated human T cells, 48 hours) | IC50 (NHEK cells; Homo sapiens, 48 hours) | IC50 (NHEK cells; 48 hours) | IC50 ([4]; read-out: meas. IC50 (APN)) | IC50 (T lymphocytes (T cells); PHA-stimulated human T cells, 48 hours) | IC50 (SZ95 cells)
1 | CCCCCC(=O)NC(CC(=O)NCC(C)(C)CNC(=O)C(O)C(COCc1ccccc1)NC(=O)CCCCC)Cc1cc(F)ccc1F (stereo not shown) [Compound C19.012] | 0.51 µM | no in- hibition | 12.2 µM | no in- hibition | 28.6 µM | no in- hibition | 17.5 µM | – | – | – | – | – | – | –
2 | CC(C)(CNC(=O)CC(Cc1cc(F)ccc1F)Nc1ccc([N+](=O)[O-])c2nonc12)CNC(=O)C(O)C(COCc1ccccc1)Nc1ccc([N+](=O)[O-])c2nonc12 (stereo not shown) [Compound C19.030] | – | no in- hibition | – | No in- hibition | 29.7 µM | no in- hibition | – | no in- hibition | 18.2 µM | 7.55 µM | – | – | – | –
3 | CC(C)(CNC(=O)CC(Cc1cc(F)ccc1F)NC(=O)OC(C)(C)C)CNC(=O)C(O)C(COCc1ccccc1)NC(=O)OC(C)(C)C (stereo not shown) [Compound C19.023] | – | no in- hibition | 11.5 µM | No in- hibition | 15.9 µM | no in- hibition | – | no in- hibition | – | – | 41 µM | – | – | –
4 | CCOC(=O)NC(CC(=O)NCC(C)(C)CNC(=O)C(O)C(COCc1ccccc1)NC(=O)OCC)Cc1cc(F)ccc1F (stereo not shown) [Compound C19.009] | 3.4 µM | no in- hibition | 33.9 µM | no in- hibition | 59.1 µM | – | 100 µM | – | – | – | – | 5.9 µM | – | –
5 | CCCC(=O)NC(CC(=O)NCC(C)(C)CNC(=O)C(O)C(COCc1ccccc1)NC(=O)CCC)Cc1cc(F)ccc1F (stereo not shown) [Compound C19.017] | – | no in- hibition | 30.5 µM | no in- hibition | ≥ 173 µM | no in- hibition | 64.6 µM | no in- hibition | – | – | – | – | – | –
6 | CC(C)(CNC(=O)CC(Cc1cc(F)ccc1F)NC(=O)OC(C)(C)C)CNC(=O)C(O)C(COCc1ccccc1)NC(=O)OC(C)(C)C (stereo not shown) [Compound C19.025] | – | no in- hibition | – | No in- hibition | – | no in- hibition | – | no in- hibition | – | – | 17.3 µM | – | 12.3 µM | 15.4 µM
7 | CC(C)(CNC(=O)CC(Cc1cc(F)ccc1F)NC(=O)C(C)(C)C)CNC(=O)C(O)C(COCc1ccccc1)NC(=O)C(C)(C)C (stereo not shown) [Compound C19.016] | – | no in- hibition | 15.7 µM | no in- hibition | 49.2 µM | no in- hibition | 37.9 µM | no in- hibition | – | – | – | – | – | –
